Laboratory results: PubChem BioAssay AID1963847 (Molecular Pharmacology Branch, DTP, NCI, 2024)

Tested on: 415267-285-R-J2-PDC complex spheroid viability
Test: Anticancer human tumor 415267-285-R-J2-PDC patient-derived breast carcinoma cell line growth inhibition [POLQ]
Conditions: for IC50: curve of first compound; for viability, T/C: stronger effect = lower value
Summary of the method: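 PDC + HUVEC + MSC complex spheroids; POLQ inhibitors ± partner drugs; top conc. at/near clinical Cmax, else 10 microM (SN-38 1 microM), half-log dilutions; 37 degrees C, 5% CO2.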

[1] = second compound 0.0316 µM, first compound 0.0316 µM
[2] = second compound 0.0316 µM, first compound 0.1 µM
[3] = second compound 0.0316 µM, first compound 0.316 µM
[4] = second compound 0.0316 µM, first compound 1 µM
[5] = second compound 0.0316 µM, first compound 3.16 µM
[6] = second compound 0.0316 µM, first compound 10 µM
[7] = second compound 0.1 µM, first compound 0.0316 µM
[8] = second compound 0.1 µM, first compound 0.1 µM
[9] = second compound 0.1 µM, first compound 0.316 µM
[10] = second compound 0.1 µM, first compound 1 µM
[11] = second compound 0.1 µM, first compound 3.16 µM
[12] = second compound 0.1 µM, first compound 10 µM
[13] = second compound 0.316 µM, first compound 0.0316 µM
[14] = second compound 0.316 µM, first compound 0.1 µM
[15] = second compound 0.316 µM, first compound 0.316 µM
[16] = second compound 0.316 µM, first compound 1 µM
[17] = second compound 0.316 µM, first compound 3.16 µM
[18] = second compound 0.316 µM, first compound 10 µM
[19] = second compound 1 µM, first compound 0.0316 µM
[20] = second compound 1 µM, first compound 0.1 µM
[21] = second compound 1 µM, first compound 0.316 µM
[22] = second compound 1 µM, first compound 1 µM
[23] = second compound 1 µM, first compound 3.16 µM
[24] = second compound 1 µM, first compound 10 µM
[25] = second compound 3.16 µM, first compound 0.0316 µM
[26] = second compound 3.16 µM, first compound 0.1 µM
[27] = second compound 3.16 µM, first compound 0.316 µM
[28] = second compound 3.16 µM, first compound 1 µM
[29] = second compound 3.16 µM, first compound 3.16 µM
[30] = second compound 3.16 µM, first compound 10 µM
[31] = second compound 10 µM, first compound 0.0316 µM
[32] = second compound 10 µM, first compound 0.1 µM
[33] = second compound 10 µM, first compound 0.316 µM
[34] = second compound 10 µM, first compound 1 µM
[35] = second compound 10 µM, first compound 3.16 µM
[36] = second compound 10 µM, first compound 10 µM
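Note: spheroids exposed to compounds for one week before readout.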
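Throughout, for viability, T/C: luminescence used as stand-in measure of viable cells; 100% = DMSO vehicle control viability.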

## CCc1cc2c(N3CCc4c(cc(Cn5ccnc5)cc4-c4cn(C)nc4C(F)(F)F)C3=O)cc(C)nc2c(OC)n1 + Nc1ccc(C#CCN(C(=O)Cc2ncc(C(F)(F)F)cc2C(F)(F)F)c2ccc(F)cc2)nn1
Second compound 0.0316 µM
  IC50: > 10 µM
Second compound 0.1 µM
  IC50: > 10 µM
Second compound 0.316 µM
  IC50: > 10 µM
Second compound 1 µM
  IC50: > 10 µM
Second compound 3.16 µM
  IC50: > 10 µM
Second compound 10 µM
  IC50: > 10 µM
[1]
  viability, T/C: 91.4%
[2]
  viability, T/C: 91.6%
[3]
  viability, T/C: 88.7%
[4]
  viability, T/C: 85.9%
[5]
  viability, T/C: 82.5%
[6]
  viability, T/C: 66.7%
[7]
  viability, T/C: 99.5%
[8]
  viability, T/C: 87.1%
[9]
  viability, T/C: 80.8%
[10]
  viability, T/C: 94.8%
[11]
  viability, T/C: 88.1%
[12]
  viability, T/C: 66.8%
[13]
  viability, T/C: 91.7%
[14]
  viability, T/C: 88.8%
[15]
  viability, T/C: 98.4%
[16]
  viability, T/C: 93.2%
[17]
  viability, T/C: 80%
[18]
  viability, T/C: 68.1%
[19]
  viability, T/C: 86%
[20]
  viability, T/C: 94.7%
[21]
  viability, T/C: 101%
[22]
  viability, T/C: 94.9%
[23]
  viability, T/C: 84%
[24]
  viability, T/C: 64.1%
[25]
  viability, T/C: 97.6%
[26]
  viability, T/C: 87.9%
[27]
  viability, T/C: 86.5%
[28]
  viability, T/C: 104%
[29]
  viability, T/C: 86.6%
[30]
  viability, T/C: 70.8%
[31]
  viability, T/C: 98.9%
[32]
  viability, T/C: 79.9%
[33]
  viability, T/C: 97.4%
[34]
  viability, T/C: 82.2%
[35]
  viability, T/C: 79.1%
[36]
  viability, T/C: 65.1%

## O=C(Nc1ccc(O)c(NS(=O)(=O)c2ccc(F)cc2)c1)c1ccc(-c2ccccc2)cc1 + Nc1ccc(C#CCN(C(=O)Cc2ncc(C(F)(F)F)cc2C(F)(F)F)c2ccc(F)cc2)nn1
Second compound 0.0316 µM
  IC50: > 10 µM
Second compound 0.1 µM
  IC50: > 10 µM
Second compound 0.316 µM
  IC50: > 10 µM
Second compound 1 µM
  IC50: > 10 µM
Second compound 3.16 µM
  IC50: > 10 µM
Second compound 10 µM
  IC50: > 10 µM
[1]
  viability, T/C: 100%
[2]
  viability, T/C: 97.3%
[3]
  viability, T/C: 84.3%
[4]
  viability, T/C: 107%
[5]
  viability, T/C: 92.7%
[6]
  viability, T/C: 78.2%
[7]
  viability, T/C: 104%
[8]
  viability, T/C: 99.1%
[9]
  viability, T/C: 106%
[10]
  viability, T/C: 86.1%
[11]
  viability, T/C: 97.2%
[12]
  viability, T/C: 61.6%
[13]
  viability, T/C: 105%
[14]
  viability, T/C: 102%
[15]
  viability, T/C: 107%
[16]
  viability, T/C: 94.9%
[17]
  viability, T/C: 97.4%
[18]
  viability, T/C: 71.5%
[19]
  viability, T/C: 102%
[20]
  viability, T/C: 90.8%
[21]
  viability, T/C: 89.6%
[22]
  viability, T/C: 95.3%
[23]
  viability, T/C: 99.8%
[24]
  viability, T/C: 66.2%
[25]
  viability, T/C: 102%
[26]
  viability, T/C: 103%
[27]
  viability, T/C: 106%
[28]
  viability, T/C: 97.8%
[29]
  viability, T/C: 91.7%
[30]
  viability, T/C: 75.7%
[31]
  viability, T/C: 102%
[32]
  viability, T/C: 99.9%
[33]
  viability, T/C: 111%
[34]
  viability, T/C: 89.5%
[35]
  viability, T/C: 99.5%
[36]
  viability, T/C: 59.5%
